The text below walks through data of US10196386B2, “Compounds having muscarinic receptor antagonist and beta2 adrenergic receptor agonist activity” (priority 2016, dated 2019).

One assay concerns the target T1, Human β2 adrenoceptor (Homo sapiens, UniProt P07550).
T1 construct: purchased Perkin Elmer
The assay can be described thus: β2 adrenoceptor radioligand binding assay. A digest of the protocol: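 Human β2 receptor membranes incubated 1 h at room temperature with 0.3 nM [125I]cyanopindolol and compound in pH 7.4 HEPES buffer (0.5% DMSO); 2 μM s-propranolol defined non-specific binding. Bound label counted after filtration; IC50 from competition curves, converted to Ki via Cheng–Prusoff.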

In a further assay the target is T2, Human M3 receptor (Homo sapiens, UniProt P20309).
T2 construct: purchased Perkin Elmer
T2 sequence (P20309 whole entry): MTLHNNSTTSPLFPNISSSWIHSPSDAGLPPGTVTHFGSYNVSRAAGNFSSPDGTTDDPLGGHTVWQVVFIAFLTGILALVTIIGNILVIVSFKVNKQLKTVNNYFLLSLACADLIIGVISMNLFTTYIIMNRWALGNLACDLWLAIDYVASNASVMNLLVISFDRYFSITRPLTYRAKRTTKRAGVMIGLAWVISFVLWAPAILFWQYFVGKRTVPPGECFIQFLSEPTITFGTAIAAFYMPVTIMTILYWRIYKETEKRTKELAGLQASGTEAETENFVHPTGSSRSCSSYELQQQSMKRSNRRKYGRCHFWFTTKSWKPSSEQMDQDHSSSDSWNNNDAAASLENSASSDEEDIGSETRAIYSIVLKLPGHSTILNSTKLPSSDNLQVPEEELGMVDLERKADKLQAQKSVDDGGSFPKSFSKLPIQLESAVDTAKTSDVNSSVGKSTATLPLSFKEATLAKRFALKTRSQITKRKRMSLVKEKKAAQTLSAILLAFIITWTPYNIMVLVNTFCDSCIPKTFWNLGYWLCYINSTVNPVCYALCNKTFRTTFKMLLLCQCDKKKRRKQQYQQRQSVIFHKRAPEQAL
The experiment in a line: biochemical. In kind it is binding. Particulars: read-out: M3 Range.

T1 sequence (P07550 whole entry): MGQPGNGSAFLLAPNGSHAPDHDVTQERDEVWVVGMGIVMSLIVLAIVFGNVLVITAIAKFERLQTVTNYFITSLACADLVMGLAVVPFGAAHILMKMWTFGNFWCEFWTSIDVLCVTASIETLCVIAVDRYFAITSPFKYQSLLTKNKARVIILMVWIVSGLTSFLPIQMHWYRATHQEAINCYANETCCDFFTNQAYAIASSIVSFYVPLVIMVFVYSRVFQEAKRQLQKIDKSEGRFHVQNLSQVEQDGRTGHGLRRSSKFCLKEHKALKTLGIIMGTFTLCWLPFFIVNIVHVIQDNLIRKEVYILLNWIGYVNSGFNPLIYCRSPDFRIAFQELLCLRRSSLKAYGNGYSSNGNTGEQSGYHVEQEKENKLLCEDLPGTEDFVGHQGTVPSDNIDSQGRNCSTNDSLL

Turning to `O=C(c1ccc(CNC[C@H](O)c2ccc(O)c3[nH]c(=O)ccc23)cc1)N1CCc2sc(-c3cccc([C@](O)(C(=O)OCC4CCN(Cc5ccccc5)CC4)c4ccccc4)c3)cc2C1` [Compound 5C, (1-Benzylpiperidin-4-yl)methyl (S)-2-hydroxy-2-(3-(5-(4-((((R)-2-hydroxy-2-(8-hydroxy-2-oxo-1,2-dihydroquinolin-5-yl)ethyl)amino)methyl)benzoyl)-4,5,6,7-tetrahydrothieno[3,2-c]pyridin-2-yl)phenyl)-2-phenylacetate], the IC50 on Human β2 adrenoceptor is less than 0.3 nM; at Human M3 receptor, 0.3 to 3 nM.
In the same order, the values of `O=C(NCC(=O)N1CC=C(c2cccc([C@](O)(C(=O)OCC3CCN(Cc4ccccc4)CC3)c3ccccc3)c2)CC1)c1ccc(CNC[C@H](O)c2ccc(O)c3[nH]c(=O)ccc23)cc1` [Compound 8D, (1-Benzylpiperidin-4-yl)methyl (S)-2-hydroxy-2-(3-(1-((4-((((R)-2-hydroxy-2-(8-hydroxy-2-oxo-1,2-dihydroquinolin-5-yl)ethyl)amino)methyl)-benzoyl)glycyl)-1,2,3,6-tetrahydropyridin-4-yl)phenyl)-2-phenylacetate] are less than 0.3 nM and 0.3 to 3 nM.
In the case of `O=C(NCc1cc(-c2cccc([C@](O)(C(=O)OCC3CCN(Cc4ccccc4)CC3)c3ccccc3)c2)cs1)c1ccc(CNC[C@H](O)c2ccc(O)c3[nH]c(=O)ccc23)cc1` [Compound 5, (1-Benzylpiperidin-4-yl)methyl (S)-2-hydroxy-2-(3-(5-((4-((((R)-2-hydroxy-2-(8-hydroxy-2-oxo-1,2-dihydroquinolin-5-yl)ethyl)amino)methyl)benzamido)methyl)-thiophen-3-yl)phenyl)-2-phenylacetate], the figures for the IC50 on Human β2 adrenoceptor and on Human M3 receptor were less than 0.3 nM and 0.3 to 3 nM, respectively.
With `O=C(NCc1ccc(-c2cccc([C@](O)(C(=O)OCC3CCN(Cc4ccccc4)CC3)c3ccccc3)c2)s1)c1ccc(CNC[C@H](O)c2ccc(O)c3[nH]c(=O)ccc23)c(Cl)c1` [Compound 1R, (1-Benzylpiperidin-4-yl)methyl (S)-2-(3-(5-((3-chloro-4-((((R)-2-hydroxy-2-(8-hydroxy-2-oxo-1,2-dihydroquinolin-5-yl)ethyl)amino)methyl)-benzamido)methyl)thiophen-2-yl)phenyl)-2-hydroxy-2-phenylacetate], the figures for the IC50 at Human β2 adrenoceptor and at Human M3 receptor were less than 0.3 nM and greater than 3 nM, respectively.
For `O=C(NCc1ccc(-c2cccc([C@](O)(C(=O)OCC3CCN(Cc4ccccc4)CC3)c3ccccc3)c2)s1)c1ccc(CNC[C@H](O)c2ccc(O)c3[nH]c(=O)ccc23)cn1` [Compound 1Q, (1-Benzylpiperidin-4-yl)methyl (S)-2-hydroxy-2-(3-(5-((5-((((R)-2-hydroxy-2-(8-hydroxy-2-oxo-1,2-dihydroquinolin-5-yl)ethyl)amino)methyl)-picolinamido)methyl)thiophen-2-yl)phenyl)-2-phenylacetate], the IC50 on Human β2 adrenoceptor is less than 0.3 nM; on Human M3 receptor, 0.3 to 3 nM.
The matching figures for `O=C(NCc1cnc(-c2cccc([C@](O)(C(=O)OCC3CCN(Cc4ccccc4)CC3)c3ccccc3)c2)cn1)c1ccc(CNC[C@H](O)c2ccc(O)c3[nH]c(=O)ccc23)cc1` [Compound 4B, (1-Benzylpiperidin-4-yl)methyl (S)-2-hydroxy-2-(3-(5-((4-((((R)-2-hydroxy-2-(8-hydroxy-2-oxo-1,2-dihydroquinolin-5-yl)ethyl)amino)methyl)-benzamido)methyl)pyrazin-2-yl)phenyl)-2-phenylacetate]: 0.3 to 3 nM and less than 0.3 nM.
In the same order, the values of `O=C(Cc1ccc(CNC[C@H](O)c2ccc(O)c3[nH]c(=O)ccc23)cc1)NCc1ccc(-c2cccc([C@](O)(C(=O)OCC3CCN(Cc4ccccc4)CC3)c3ccccc3)c2)s1` [Compound 1P, (1-Benzylpiperidin-4-yl)methyl (S)-2-hydroxy-2-(3-(5-((2-(4-((((R)-2-hydroxy-2-(8-hydroxy-2-oxo-1,2-dihydroquinolin-5-yl)ethyl)amino)methyl)-phenyl)acetamido)methyl)thiophen-2-yl)phenyl)-2-phenylacetate] are 0.3 to 3 nM and 0.3 to 3 nM.
Regarding `O=C(c1ccc(-c2cccc([C@](O)(C(=O)OCC3CCN(Cc4ccccc4)CC3)c3ccccc3)c2)nc1)N1CCC(CNC[C@H](O)c2ccc(O)c3[nH]c(=O)ccc23)CC1` [Compound 6D, (1-Benzylpiperidin-4-yl)methyl (S)-2-hydroxy-2-(3-(5-(4-((((R)-2-hydroxy-2-(8-hydroxy-2-oxo-1,2-dihydroquinolin-5-yl)ethyl)amino)methyl)piperidine-1-carbonyl)pyridin-2-yl)phenyl)-2-phenylacetate], the IC50 was less than 0.3 nM at Human β2 adrenoceptor and 0.3 to 3 nM at Human M3 receptor.
In the same order, the values of `O=C(NCCCNC[C@H](O)c1ccc(O)c2[nH]c(=O)ccc12)c1cncc(-c2cccc([C@](O)(C(=O)OCC3CCN(Cc4ccccc4)CC3)c3ccccc3)c2)n1` [Compound 10, (1-Benzylpiperidin-4-yl)methyl (S)-2-hydroxy-2-(3-(6-((3-(((R)-2-hydroxy-2-(8-hydroxy-2-oxo-1,2-dihydroquinolin-5-yl)ethyl)amino)propyl)carbamoyl)pyrazin-2-yl)phenyl)-2-phenylacetate] are 0.3 to 3 nM and 0.3 to 3 nM.
In the same order, the values of `COc1cc(CNC[C@H](O)c2ccc(O)c3[nH]c(=O)ccc23)cc(F)c1C(=O)NCc1ccc(-c2cccc([C@](O)(C(=O)OCC3CCN(Cc4ccccc4)CC3)c3ccccc3)c2)s1` [Compound 1X, (1-Benzylpiperidin-4-yl)methyl (S)-2-(3-(5-((2-fluoro-4-((((R)-2-hydroxy-2-(8-hydroxy-2-oxo-1,2-dihydroquinolin-5-yl)ethyl)amino)methyl)-6-methoxybenzamido)methyl)thiophen-2-yl)phenyl)-2-hydroxy-2-phenylacetate] are less than 0.3 nM and 0.3 to 3 nM.
Take `O=C(c1cncc(-c2cccc([C@](O)(C(=O)OCC3CCN(Cc4ccccc4)CC3)c3ccccc3)c2)n1)N1CCC(CNC[C@H](O)c2ccc(O)c3[nH]c(=O)ccc23)CC1` [Compound 6A, (1-Benzylpiperidin-4-yl)methyl (S)-2-hydroxy-2-(3-(6-(4-((((R)-2-hydroxy-2-(8-hydroxy-2-oxo-1,2-dihydroquinolin-5-yl)ethyl)amino)methyl)piperidine-1-carbonyl)pyrazin-2-yl)phenyl)-2-phenylacetate]: the IC50 on Human β2 adrenoceptor and on Human M3 receptor was 0.3 to 3 nM in each case.
As to `CN1CCC(COC(=O)[C@](O)(c2ccccc2)c2cccc(-c3ccc(CNC(=O)c4ccc(CNC[C@H](O)c5ccc(O)c6[nH]c(=O)ccc56)cc4)s3)c2)CC1` [Compound 2B, (1-Methylpiperidin-4-yl)methyl (S)-2-hydroxy-2-(3-(5-((4-((((R)-2-hydroxy-2-(8-hydroxy-2-oxo-1,2-dihydroquinolin-5-yl)ethyl)amino)methyl)-benzamido)methyl)thiophen-2-yl)phenyl)-2-phenylacetate], the IC50 at Human β2 adrenoceptor is less than 0.3 nM; on Human M3 receptor, 0.3 to 3 nM.
The matching figures for `O=C(c1ccc(CNC[C@H](O)c2ccc(O)c3[nH]c(=O)ccc23)cc1)N1CC=C(c2cccc([C@](O)(C(=O)OCC3CCN(Cc4ccccc4)CC3)c3ccccc3)c2)C1` [Compound 3G, (1-Benzylpiperidin-4-yl)methyl (S)-2-hydroxy-2-(3-(1-(4-((((R)-2-hydroxy-2-(8-hydroxy-2-oxo-1,2-dihydroquinolin-5-yl)ethyl)amino)methyl)benzoyl)-2,5-dihydro-1H-pyrrol-3-yl)phenyl)-2-phenylacetate]: less than 0.3 nM and 0.3 to 3 nM.
In the same order, the values of `COc1cc(C(=O)N2CC=C(c3cccc([C@](O)(C(=O)OCC4CCN(Cc5ccccc5)CC4)c4ccccc4)c3)CC2)ccc1CNC[C@H](O)c1ccc(O)c2[nH]c(=O)ccc12` [Compound 3C, (1-Benzylpiperidin-4-yl)methyl (S)-2-hydroxy-2-(3-(1-(4-((((R)-2-hydroxy-2-(8-hydroxy-2-oxo-1,2-dihydroquinolin-5-yl)ethyl)amino)methyl)-3-methoxybenzoyl)-1,2,3,6-tetrahydropyridin-4-yl)phenyl)-2-phenylacetate] are less than 0.3 nM and less than 0.3 nM.
In the same order, the values of `O=C(c1ccc(CCNC[C@H](O)c2ccc(O)c3[nH]c(=O)ccc23)cc1)N1CC=C(c2cccc([C@](O)(C(=O)OCC3CCN(Cc4ccccc4)CC3)c3ccccc3)c2)C1` [Compound 3F, (1-Benzylpiperidin-4-yl)methyl (S)-2-hydroxy-2-(3-(1-(4-(2-(((R)-2-hydroxy-2-(8-hydroxy-2-oxo-1,2-dihydroquinolin-5-yl)ethyl)amino)ethyl)benzoyl)-2,5-dihydro-1H-pyrrol-3-yl)phenyl)-2-phenylacetate] are less than 0.3 nM and 0.3 to 3 nM.
For `O=C(c1ccc(CNC[C@H](O)c2ccc(O)c3[nH]c(=O)ccc23)cc1)N1CCC=C(c2cccc([C@](O)(C(=O)OCC3CCN(Cc4ccccc4)CC3)c3ccccc3)c2)C1` [Compound 3I, (1-Benzylpiperidin-4-yl)methyl (S)-2-hydroxy-2-(3-(1-(4-((((R)-2-hydroxy-2-(8-hydroxy-2-oxo-1,2-dihydroquinolin-5-yl)ethyl)amino)methyl)benzoyl)-1,2,5,6-tetrahydropyridin-3-yl)phenyl)-2-phenylacetate], the IC50 on Human β2 adrenoceptor and on Human M3 receptor was 0.3 to 3 nM in each case.
As to `O=C(c1ccc(CCNC[C@H](O)c2ccc(O)c3[nH]c(=O)ccc23)cc1)N1CCC(c2cccc([C@](O)(C(=O)OCC3CCN(Cc4ccccc4)CC3)c3ccccc3)c2)CC1` [Compound 7C, (1-Benzylpiperidin-4-yl)methyl (S)-2-hydroxy-2-(3-(1-(4-(2-(((R)-2-hydroxy-2-(8-hydroxy-2-oxo-1,2-dihydroquinolin-5-yl)ethyl)amino)ethyl)benzoyl)piperidin-4-yl)phenyl)-2-phenylacetate], the IC50 at Human β2 adrenoceptor was less than 0.3 nM; at Human M3 receptor, 0.3 to 3 nM.
